From PubChem BioAssay (NCI)
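Values below derive from 48-hour exposures of cells grown in 96-well plates, with endpoints linearly interpolated between the two concentrations bracketing the appropriate inhibition level. At the GI50, growth is halved. At the TGI there is no net growth.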

Experiments:
Experiment in all cases: inhibition of tumour cell growth, NCI panel, 48 h
OVCAR-5 ovarian = system: OVCAR-5 ovarian
HOP-92 NSCLC = system: HOP-92 NSCLC
SN12C renal = system: SN12C renal
SK-MEL-28 melanoma = system: SK-MEL-28 melanoma
SK-OV-3 ovarian = system: SK-OV-3 ovarian
SR leukemia = system: SR leukemia
PC-3 prostate = system: PC-3 prostate
K-562 leukemia = system: K-562 leukemia
IGROV1 ovarian = system: IGROV1 ovarian
DU-145 prostate = system: DU-145 prostate

SMILES: COc1c(O)cc2oc3cc(O)c(CC=C(C)C)c(O)c3c(=O)c2c1C/C=C(\C)CCC=C(C)C
- GI50 (OVCAR-5 ovarian): 5.19 µM
- TGI (OVCAR-5 ovarian): 10.6 µM
- GI50 (HOP-92 NSCLC): 6.52 µM
- TGI (HOP-92 NSCLC): 11.5 µM
- GI50 (SN12C renal): 5.68 µM
- TGI (SN12C renal): 10.9 µM
- GI50 (SK-MEL-28 melanoma): 5.4 µM
- TGI (SK-MEL-28 melanoma): 10.3 µM
- GI50 (SK-OV-3 ovarian): 5.86 µM
- TGI (SK-OV-3 ovarian): 10.4 µM
- GI50 (SR leukemia): 5.45 µM
- TGI (SR leukemia): 13.2 µM
- GI50 (PC-3 prostate): 5.55 µM
- TGI (PC-3 prostate): 11.2 µM
- GI50 (K-562 leukemia): 7.29 µM
- TGI (K-562 leukemia): 16.6 µM
- GI50 (IGROV1 ovarian): 5.39 µM
- TGI (IGROV1 ovarian): 10.4 µM
- GI50 (DU-145 prostate): 5.98 µM
- TGI (DU-145 prostate): 10.5 µM

SMILES: COc1cc(-c2cc(C(=O)Nc3nc4ccccc4s3)nc3cc(-c4ccccc4)nn23)cc(OC)c1OC
- GI50 (OVCAR-5 ovarian): > 100 µM
- TGI (OVCAR-5 ovarian): > 100 µM
- GI50 (HOP-92 NSCLC): 0.775 µM
- TGI (HOP-92 NSCLC): 5.24 µM
- GI50 (SN12C renal): 85.1 µM
- TGI (SN12C renal): > 100 µM
- GI50 (SK-MEL-28 melanoma): 3.34 µM
- TGI (SK-MEL-28 melanoma): > 100 µM
- GI50 (SK-OV-3 ovarian): 12.5 µM
- TGI (SK-OV-3 ovarian): 27.9 µM
- GI50 (SR leukemia): 19.7 µM
- TGI (SR leukemia): 52.5 µM
- GI50 (PC-3 prostate): > 100 µM
- TGI (PC-3 prostate): > 100 µM
- GI50 (K-562 leukemia): 25.4 µM
- TGI (K-562 leukemia): > 100 µM
- GI50 (IGROV1 ovarian): 56.3 µM
- TGI (IGROV1 ovarian): > 100 µM
- GI50 (DU-145 prostate): 65 µM
- TGI (DU-145 prostate): > 100 µM

SMILES: COC(=O)C/C(C)=C/[C@@H](O)[C@H]1O[C@@H]2CC/C(Cl)=C/C/C=C(/C)[C@H](OC(C)=O)CC(=O)O[C@@H]1C2
- GI50 (OVCAR-5 ovarian): 8.17 µM
- TGI (OVCAR-5 ovarian): > 25 µM
- GI50 (SN12C renal): 1.01 µM
- TGI (SN12C renal): 7.4 µM
- GI50 (SK-MEL-28 melanoma): 1.04 µM
- TGI (SK-MEL-28 melanoma): 5.75 µM
- GI50 (SR leukemia): 0.813 µM
- TGI (SR leukemia): 3.19 µM
- GI50 (PC-3 prostate): 1.08 µM
- TGI (PC-3 prostate): 4.13 µM
- GI50 (K-562 leukemia): 4.34 µM
- TGI (K-562 leukemia): > 25 µM
- GI50 (IGROV1 ovarian): 1.68 µM
- TGI (IGROV1 ovarian): 15.7 µM
- GI50 (DU-145 prostate): 1.29 µM
- TGI (DU-145 prostate): > 25 µM
